Assay results from PMC9029776, “Development and Experimental Validation of Regularized Machine Learning Models Detecting New, Structurally Distinct Activators of PXR” (Cells, 2022).

Target: T1, pregnane X receptor (PXR) (Homo sapiens, UniProt O75469)
T1 construct: gene NR1I2; PXR-LBD (132-188) + (189-434) assembly; LBD (108-434) in co-factor assays
T1 sequence (O75469 108-434): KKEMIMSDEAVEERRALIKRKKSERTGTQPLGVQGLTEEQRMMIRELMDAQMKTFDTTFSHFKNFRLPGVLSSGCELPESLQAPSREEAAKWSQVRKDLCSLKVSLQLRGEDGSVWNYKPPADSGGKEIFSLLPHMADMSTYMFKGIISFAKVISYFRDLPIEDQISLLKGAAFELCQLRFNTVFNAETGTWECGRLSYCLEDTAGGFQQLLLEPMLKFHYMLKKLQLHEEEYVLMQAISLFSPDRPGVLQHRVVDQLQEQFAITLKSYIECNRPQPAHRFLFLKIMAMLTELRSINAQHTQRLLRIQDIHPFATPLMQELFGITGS
Assay: mammalian two-hybrid PXR-LBD assembly assay in HepG2; NCOR2 release, NCOA1 recruitment; SPA70-blocked CYP3A4 reporter
Format: cell-based
Conditions: hepg2, 10 µM

Row | Measured Activity ^1 | Substance
1 | 115.84 % of rifampicin activity at 10 µM | MolPort-000-431-927 [compound 42]
2 | 84.18 % of rifampicin activity at 10 µM | MolPort-002-216-386 [compound 53]
3 | 136.87 % of rifampicin activity at 10 µM | MolPort-006-630-224 [compound 25]

Target: T2, pregnane X receptor (PXR) (Homo sapiens, UniProt O75469)
T2 construct: gene NR1I2; PXR-LBD (132-188) + (189-434)
T2 sequence (O75469 132-188): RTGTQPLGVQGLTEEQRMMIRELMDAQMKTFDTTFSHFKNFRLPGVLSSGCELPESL
T2 sequence (O75469 189-434): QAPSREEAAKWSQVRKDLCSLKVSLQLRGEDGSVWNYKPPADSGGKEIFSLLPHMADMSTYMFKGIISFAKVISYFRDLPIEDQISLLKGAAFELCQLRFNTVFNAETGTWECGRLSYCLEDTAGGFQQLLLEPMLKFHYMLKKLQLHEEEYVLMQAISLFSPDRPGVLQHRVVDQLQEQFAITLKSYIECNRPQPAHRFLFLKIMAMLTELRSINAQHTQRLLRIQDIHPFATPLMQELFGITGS
Assay: mammalian two-hybrid PXR-LBD assembly assay in HepG2
Format: cell-based
Conditions: hepg2, 10 µM

Row | Measured Activity ^1 | Substance
4 | 91.00 % of rifampicin activity at 10 µM | MolPort-000-431-925 [compound 22]
5 | 71.67 % of rifampicin activity at 10 µM | MolPort-000-431-934 [compound 43]
6 | 100.91 % of rifampicin activity at 10 µM | MolPort-006-629-818 [compound 34]
7 | 80.37 % of rifampicin activity at 10 µM | MolPort-006-630-110 [compound 39]
